The source of these data is publication PMC5349447, “Applying a high-throughput fluorescence polarization assay for the discovery of chemical probes blocking La:RNA interactions in vitro and in cells” (PLoS ONE, 2017).

The experiment has as its target T1, La protein:fD1-RNA (Homo sapiens, UniProt P05455).
T1 construct: His; made in house; host or cells: E. coli BL21
T1 sequence (P05455 1-408): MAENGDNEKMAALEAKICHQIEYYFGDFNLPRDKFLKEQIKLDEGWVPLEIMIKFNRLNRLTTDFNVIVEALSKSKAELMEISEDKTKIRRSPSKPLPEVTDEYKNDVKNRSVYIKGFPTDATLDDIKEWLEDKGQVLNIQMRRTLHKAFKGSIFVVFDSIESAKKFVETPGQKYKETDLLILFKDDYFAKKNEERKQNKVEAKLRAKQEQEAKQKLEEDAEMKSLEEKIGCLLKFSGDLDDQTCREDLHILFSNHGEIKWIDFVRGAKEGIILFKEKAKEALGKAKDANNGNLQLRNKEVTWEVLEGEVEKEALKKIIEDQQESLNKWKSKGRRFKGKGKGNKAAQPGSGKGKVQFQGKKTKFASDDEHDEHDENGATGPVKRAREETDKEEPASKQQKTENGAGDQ
As to the kind of experiment: La:RNA fluorescence polarization assay (La-FP). Type of experiment: binding. The settings on record: for pIC50: 1.35 μM La, 0.8 μM fD1-RNA, compound at 25, 50, 100, 1000 μM, read-out: IC50, La:fD1-RNA complex formation (La-FP); for inhibition at 100 µM: compound 100 μM; for inhibition at 1000 µM: compound 1000 μM. As to the method: Measurements of fluorescence and fluorescence polarization were performed on a Spectramax M5 microplate reader (Molecular Devices, Sunnyvale, CA) with the excitation and emission wavelengths 544 nm and 590 nm, respectively. To block unwanted residual excitation light and minimize background interference, a 570 nm “cutoff” filter was applied. Black shallow 384-well micro plates (ProxiPlate ^TM– 384 F Plus, PerkinElmer) were used to record data. To minimize the polarization effects from fluorophore, which may be bound to the surface of the well, both excitation and emission data were recorded from the top of the well. Reading time was 100 ms per well. Millipolarization units (mP) were used to express fluorescence polarization values defined by the equation mP = 1000 x [(Iv—GIh) / (Iv+ GIh)], where Iv and Ih are parallel and perpendicular emission intensity measurements corrected for background (buffer), and G-factor.
The ratio of sensitivities of the detection system for vertically and horizontally polarized light G = Iv/Ih was determined with dilution series of the fluorescence-labeled cyclin D1-RNA oligonucleotide (fD1) only (free-tracer) using SoftMax® Pro Data Acquisition & Analysis Software (Molecular Devices, Sunnyvale, CA). The assay window–the specific binding ΔmP–was defined as the difference between fluorescence polarization (mP) for La protein:fD1 reactions (mPs) and fluorescence polarization of free-fD1 reactions (mPfree): ΔmP = mPs−mPfree.
The assay was formatted using 10 μl reaction volume per well. Assay buffer (20 mM Tris-HCl pH 7.5, 3.0 mM MgCl2, 0.5 mM EDTA, 150 mM NaCl, 0.05% IGEPAL, BGG 100 μg/ml (BGG = Bovine γ-Globulin or γ-Globulins from bovine blood)) was used to dilute all ingredients. Detergent was added to prevent the potential aggregation of small compounds. The aggregation of small compounds can lead to false-positive results in HTS approaches and is indicated by a high Hill factor[50]. To find the optimal concentration of the free fluorescent tracer (fD1), which gives low and stable fluorescence polarization signal, and to calculate the G-factor, 100–1000 nM fD1 dilution series were measured in quadruplicates. Using variable fD1 concentrations, the optimal tracer:protein ratio was determined in binding experiments with increasing concentrations of La protein (1.35–1350 nM). To start the reaction, fD1 and La protein stock solutions were mixed into each well. Each reaction was performed in quadruplicates. After shaking the plate for 2 min followed by 15 min incubation at room temperature, fluorescence polarization signals were recorded as described above. Fluorescence polarization measurements were performed on different days using 7 microtiter plates (111 samples total).
High-throughput screening against the ChemBridge DIVERSet library was carried out under the following conditions: 1 μl of each compound (dissolved in 100% DMSO) was pre-incubated with 8 μl of La protein for 30 min at room temperature, followed by an additional 15 min incubation with 1 μl of fD1 (final concentration of La, fD1, and DMSO in the 10 μl reaction: 1.35 μM La, 0.8 μM fD1, 10% DMSO). The reactions were performed in duplicate. In addition to samples with the compounds, each plate contained 2 background wells (10 μl buffer only), and at least 4 wells for Ps (La and fD1) and Pfree (fD1 alone) reactions. All samples included 10% DMSO. Pilot screening was carried out with 10 mM cocktails of 10 compounds (giving a final concentration of 100 μM for each compound). […] Using the same fluorescence polarization assay format, La protein (1.35 μM) was incubated with each potential hit compound at 25, 50, 100, 1000 μM (in triplicate) for 30 min, followed by an additional 15 min incubation with 0.8 μM fD1. Data points for specific binding (B) were normalized to the maximum specific binding (Bmax), which defines complete saturation of the La protein with fD1 in the absence of a compound (B/Bmax). […]
For orientation: Fluorescence polarisation rises when a labelled molecule tumbles more slowly, as on binding a larger partner.

pIC50: −log10 of the molar value.

As for `O=C(O)c1ccccc1C(=O)c1ccc(O)cc1O` [C2, 2-(2,4-dihydroxybenzoyl)benzoic acid], the pIC50 is 5.12, the inhibition at 100 µM worked out at 100% and the inhibition at 1000 µM stood at 100%.

With `CCOC(=O)c1ccc2c(c1)C1C=CCC1C(C(=O)O)N2` (stereo not drawn) [C6, 8-(ethoxycarbonyl)-3a,4,5,9b-tetrahydro-3Hcyclopenta[c]quinoline-4-carboxylic acid], the pIC50 is 5.60, at 100 µM the inhibition was 100% and the inhibition at 1000 µM amounted to 100%.

The pIC50 is −log10 of the IC50, conventionally taken in molar units. By inhibition is commonly meant the percentage by which the read-out fell short of the control.
